According to paper PMC2438350, “Comparison of four different colorimetric and fluorometric cytotoxicity assays in a zebrafish liver cell line” (BMC Pharmacology, 2008):

Columns and labels:
Assay type in all cases: cell-based, zebrafish (Danio rerio)
ZFL cells [1] = assay: LDH assay (released lactate dehydrogenase activity), cytotoxicity; settings: for EC10 (10% loss of cell viability): 24 h exposure, 1% FBS, mean ± SD of three experiments; for EC50: read-out: EC50 (50% loss of cell viability), 24 h exposure, 1% FBS, mean ± SD of three experiments
Procedure: (§1) Each compound was dissolved in dimethyl sulfoxide (DMSO) and diluted in a way that all stock solutions were 200 times concentrated compared to the final test concentrations. Concentration ranges were 30 pM-1.97 μM for BaP, 5 nM-5 μM for Flus, 5 nM-11 μM for Tam, and 0.2–43 μM for 4-OHT, which is in the range of in vivo studies with waterborne exposure of zebrafish for BaP, Tam, and 4-OHT [20-22, 29]. For Flusilazole, no studies on fish are available.
(§2) For finding the optimal biological test conditions, in the beginning different cell densities were applied using two-fold dilution series in the range of 780–100,000 cells/well and cell viability tests were performed after 24 h. […] Thus, cells were plated in 96 well flat-bottom plates at an initial cell density of 25,000 cells/well in 200 μL of medium and allowed to settle for 24 h. In parallel, wells containing only medium without cells were prepared and used later on for background correction. After the pre-incubation period, for each test compound and each concentration, 1 μL of the DMSO stock solutions was added so that the final DMSO content was 0.5%. All tests were performed at least three times and each time in triplicate.
A second set of cells was exposed to the test compounds for the LDH assay, which was performed using the Cytotoxicity Detection Kit LDH (Roche). For this assay, a positive control, leading to 100% cytotoxicity by lysing the cells completely, was included in the assay. The positive control was 2% Triton X-100 solution in the assay medium, as proposed by the manufacturer. After pre-incubation of the cells, before addition of the test compounds, the growth medium was exchanged from medium containing 5% FBS to medium containing only 1% FBS. Then, test compounds in DMSO were dosed and plates incubated as for the other assays for 24 h. For testing the released LDH activity, 100 μL of culture medium were transferred to a new 96 well plate. 100 μL of the reaction solution from the kit, containing the detection dye and the catalyst were then added and absorption was measured after 30 min at 490 nm with 655 nm as reference wavelength in an ELISA reader (Model 680, Biorad). As for the other assays, background values from wells without cells were subtracted and average values for the triplicates calculated. Cytotoxicity was then calculated according to the following equation: Cytotoxicity (%) = (experimental value - DMSO control)/(positive control - DMSO control) × 100.
(§3) For each single assay, data were evaluated separately for three independent experiments. Dose-response curves were fitted using a nonlinear-regression sigmoidal dose-response curve model provided in the GraphPad Prism software (GraphPad software, Inc., San Diego, USA). EC10 and EC50 values were derived from these fitted curves for the single experiments. Final EC-values (Table 1) were calculated as average of three independent experiments with the standard deviation of the mean indicating the variation. Data from the different assays were statistically compared using One way ANOVA analysis with Tukey's test as post-ANOVA analysis (p < 0.05).

ZFL cells [2] = assay: MTT assay, cytotoxicity; settings: for EC10 (10% loss of cell viability): 24 h exposure, mean ± SD of three experiments; for EC50: read-out: EC50 (50% loss of cell viability), 24 h exposure, mean ± SD of three experiments
Procedure: as §1, §2
The MTT assay was performed using the cell proliferation kit I MTT (Roche) according to the manufacturer's protocol. In brief, after 24 h of incubation with the test compounds, 100 μL of medium were removed from each well. Then, 10 μL of the MTT solution were added and plates incubated for 4 h at 28°C. Since the manufacturer recommends incubation at 37°C and ZFL cells have to be incubated at 28°C, we tested different incubation times with MTT (2, 4, and 6 h) to establish optimized conditions. […] After the incubation with MTT, the solubilization solution was added and plates incubated over night. The next day, absorption of the produced formazan was measured at 570 nm with 680 nm as reference wavelength using a microplate reader (Infinite 200, Tecan). For data evaluation, background and reference wavelength corrected absorption values were averaged for the triplicates and expressed as "% cytotoxicity" referring to the untreated control containing only the solvent DMSO.
as §3

ZFL cells [3] = assay: alamarBlue (AB) assay, cytotoxicity; settings: for EC10 (10% loss of cell viability): 24 h exposure, mean ± SD of three experiments; for EC50: read-out: EC50 (50% loss of cell viability), 24 h exposure, mean ± SD of three experiments
Procedure: as §1, §2
(§4) The fluorogenic indicator dyes alamarBlue® (AB) (BioSource, Invitrogen) and CFDA-AM (5-carboxyfluorescein diacetate acetoxymethyl ester; Molecular Probes, Invitrogen) were used in combination on a third set of cells, since it was shown before that their fluorescent products can be detected at different non-interfering wavelengths. AB was obtained as ready-to-use stock solution, which had to be diluted 200 times to obtain the working solution. CFDA-AM powder was dissolved in DMSO to a stock solution of 4 mM, which was diluted 1000 times to reach the 4 μM working solution. […] For this purpose, cells were exposed to the dyes dissolved in culture medium without FBS or in Earle's-G medium. […] The AB/CFDA-AM assay was then performed according to [10]. In brief, after 24 h of incubation with the test compounds, the medium was aspirated off completely and 100 μL/well of the alamarBlue/CFDA-AM working solution were added. After 30 min of incubation, fluorescence was measured at 530 nm excitation/590 nm emission for AB and 485 nm/535 nm for CFDA-AM, respectively, using a fluorescence plate reader (Infinite 200, Tecan). For data evaluation, average values of triplicates were calculated after background correction and all average values for the treatments referred to the DMSO control, in order to express data as "% cytotoxicity".
as §3

ZFL cells [4] = assay: CFDA-AM assay, cytotoxicity; settings: for EC10 (10% loss of cell viability): 24 h exposure, mean ± SD of three experiments; for EC50: read-out: EC50 (50% loss of cell viability), 24 h exposure, mean ± SD of three experiments
Procedure: as §1, §2, §4, §3

SMILES | EC10 (10% loss of cell viability) (ZFL cells [1]) [µM] | EC50 (ZFL cells [1]) [µM] | EC10 (10% loss of cell viability) (ZFL cells [2]) [µM] | EC50 (ZFL cells [2]) [µM] | EC10 (10% loss of cell viability) (ZFL cells [3]) [µM] | EC50 (ZFL cells [3]) [µM] | EC10 (10% loss of cell viability) (ZFL cells [4]) [µM] | EC50 (ZFL cells [4]) [µM] | EC50 (ZFL cells [1]; Danio rerio) [µM] | EC50 (ZFL cells [2]; Danio rerio) [µM] | EC50 (ZFL cells [3]; Danio rerio) [µM] | EC50 (ZFL cells [4]; Danio rerio) [µM]
CC/C(=C(\c1ccc(O)cc1)c1ccc(OCCN(C)C)cc1)c1ccccc1.Cl [4-OH-Tamoxifen, trans-4-Hydroxy-Tamoxifen] | 0.73 ± 0.55 | 1.62 ± 0.01 | 1.49 ± 0.82 | 1.78 ± 0.4 | 0.79 ± 0.40 | 1.17 ± 0.24 | 1.08 ± 0.62 | 1.73 ± 0.67 |  |  |  | 
C[Si](Cn1cncn1)(c1ccc(F)cc1)c1ccc(F)cc1 [Flusilazole] | 2.28 ± 3.12 |  | 11.29 ± 5.88 |  | 16.13 ± 11.44 |  | 6.49 ± 1.08 |  | 17.4 ± 14.5 | 18.4 ± 14.1 | 26.4 ± 7.3 | 16.7 ± 4.76
CC/C(=C(\c1ccccc1)c1ccc(OCCN(C)C)cc1)c1ccccc1 [Tamoxifen] | 0.61 ± 0.67 |  | 1.39 ± 0.77 |  | 1.37 ± 0.33 |  | 2.52 ± 2.14 |  |  |  |  | 
